# Laboratory results from paper PMC8708274, “Unveiling the Membrane and Cell Wall Action of Antimicrobial Cyclic Lipopeptides: Modulation of the Spectrum of Activity” (Pharmaceutics, 2021).
# Read-outs that look alike come from different tables or passages of the source. Positions of bridges follow the written chain, without caps; N, C: chain ends. Non-standard residues stand in square brackets, D forms with d. Residues, ends and D or L forms follow the SMILES beside them. No end group written: not given here. *: point of attachment. Lauroyl = CCCCCCCCCCCC(=O)*; Decanoyl = CCCCCCCCCC(=O)*; X1 = CC[C@H](C)CCCCC(=O)*; Nle = CCCC[C@H](N)C(=O)O; Dab = NCC[C@H](N)C(=O)O
# Columns and labels:
# [1] = test system: fresh rabbit erythrocytes; assay: Hemolysis assay; assay type: cell-based; conditions: 335 μM lipopeptide, 1 h at 37 °C, 10 mM Tris 80 mM NaCl pH 7.4, absorbance 540 nm, average of three independent experiments
# Description: Hemolytic activity was evaluated on fresh rabbit erythrocytes collected in EDTA collection tubes, as previously described. Briefly, an erythrocite suspension in buffer (10 mM Tris, 80 mM NaCl pH 7.4) was obtained by centrifugation (three times, 10 min at 4000 rpm) and adjusted at an optical density of 1 at 540 nm. Aliquots of 200 µL were incubated for 1 h at 37 °C with the different lipopeptides in 96-well polypropylene microtiter plates and centrifuged (15 min, 5000 rpm). Lipopetide-induced hemolysis was determined by measuring the absorbance at 540 nm of released hemoglobin (Asample) in the supernatant. Each determination was done by triplicate, and as negative and positive controls, erythrocytes in buffer (A0%) and in distilled water (A100%) were employed, respectively. Hemolysis was calculated according the following equation: % hemolysis = 100 · (Asample − A0%/A100% − A0%).
# [2] = test system: Escherichia coli ATTC 25922; assay type: cell-based; conditions: broth microdilution, MHB, overnight 37 °C, triplicate
# Description: (§1) The minimal peptide concentration required to prevent the growth of a given test organism was determined after incubation overnight at 37 °C and was defined as the MIC. Activity was determined in representative bacteria, Escherichia coli ATTC 25922, Pseudomonas aeruginosa ATTC 27853, and Staphylococcus aureus ATTC 25923, using the broth microdilution method. Serial-two-fold dilutions of peptide (from 0.06 to 32 μg/mL) were performed in Mueller–Hinton broth (MHB) culture medium in sterile 96-well polypropylene microtiter plates inoculated with a final concentration of 5 × 10^5 CFU·mL^−1 of bacteria in each well. Bacteria were in the pre-exponential phase. Each determination was done by triplicate. In order to be considered acceptable, the three MIC results have to differ in only in one well, and the result was always given as the higher of the three. Drug-free and microorganism-free wells were used as positive and negative controls, respectively. Bacterial growth was visually determined on the basis of turbidity.
# [3] = test system: Staphylococcus aureus ATTC 25923; assay type: cell-based; conditions: broth microdilution, MHB, overnight 37 °C, triplicate
# Description: as §1
# [4] = test system: Pseudomonas aeruginosa ATTC 27853; assay type: cell-based; conditions: broth microdilution, MHB, overnight 37 °C, triplicate
# Description: as §1
# [5] = Kinetics of insertion into monolayers; assay type: binding; conditions: 25 min after injection, 10 mM Tris pH 7.4, 25 °C, average of three independent experiments (error < 10%); for Increase in surface pressure (Δπ), POPE/POPG: POPE/POPG 6:4, initial pressure 32 mN·m^−1, peptide 0.48 μM; for Increase in surface pressure (Δπ), POPC / Increase in surface pressure (Δπ), POPG: initial pressure 32 mN·m^−1, peptide 0.48 μM
# Description: (§2) Monolayer studies were performed at room temperature (25 °C) on a monolayer system (NIMA Technology, Coventry, UK) by using a cylindrical PTFE (Teflon®, Wilmington, DE, USA) trough (5 cm diameter) containing a continuously stirred aqueous phase (12 mL, 10 mM Tris pH 7.4) and a Wilhelmy platinum plate connected to an electrobalance. The system was enclosed in a Plexiglass box to reduce surface contamination, and before each run, the plate and the trough were cleaned with hot water at >70 °C to avoid carryover of lipid or peptide. Monolayers of POPG, POPE/POPG (6:4), POPC, or LPS were formed by applying small drops of the lipid stock solutions in CHCl3 on the aqueous subphase with a microsyringe (Hamilton Co., Reno, NV, USA) to achieve a surface pressure of 32 mN·m^−1. After 10 min, allowing for solvent evaporation, a known aliquot of peptide was added without disturbance of the monolayer via an inlet port, and the surface pressure was continuously monitored.
# [6] = FRET lipid mixing (NBD-PE/Rh-PE); conditions: 1:1 vesicles with 0.6% NBD-PE or Rh-PE, total lipid 107 μM, 25 °C, 10 mM Tris pH 7.4
# Description: Large unilamellar vesicles (LUVs) of POPG, POPE/POPG (6:4), or POPC, alone or with the fluorescently labeled phospholipids NBD-PE or Rh-PE, were prepared by the evaporation of a mixture of the lipids and probes in CHCl3. The solvent was removed by a gentle stream of nitrogen gas followed by overnight storage under vacuum. The dried films were hydrated with Tris 10 mM pH 7.4 to the desired final lipid concentration and then sonicated in a bath type sonicator (Lab Supplies, Hickesville, NY, Model G112SPIT) until a clear dispersion was obtained (typically 3–5 min). […] The average diameter was determined by dynamic light scattering with a Malvern II-C Autosizer, with a z-diameter between 111 and 117 nm, and a polydispersity of 0.1. […] Moreover, they contained 0.2% Rh-PE for monitoring the fluorescence before and after the separation of the unencapsulated material, which was carried out by gel filtration on a Sephadex G-50 column eluted with 10 mM Tris 80 mM NaCl. In this way, the final lipid concentration was calculated taking into account the loss of lipid and the dilution of the sample.
# Peptide-induced lipid mixing of vesicles of different composition was investigated in the same spectrofluorimeter, measuring the increase in fluorescence resonance energy transfer (FRET) from an NBD-PE donor population to an Rh-PE acceptor population. […]
# [7] = Kinetics of insertion into monolayers; assay type: binding, Salmonella enterica serotype Minnesota Re 595; conditions: initial pressure 32 mN·m^−1, peptide 0.48 μM, 25 min after injection, 10 mM Tris pH 7.4, 25 °C, average of three independent experiments (error < 10%)
# Description: as §2
# E. coli = assay: Transmission electron microscopy of treated bacteria; assay type: cell-based, Escherichia coli; conditions: 1xMIC, 2 h, room temperature, tryptone water
# Description: (§3) Then, 500 µL of this culture were added to 50 mL of tryptone water for a concentration of ≈10^8 bacteria·mL^−1. Aliquots of 10 mL were incubated with the lipopeptide at the desired concentration for 2 h at room temperature, and bacterial cells were collected by centrifugation (12,857 g, 20 min). Samples were fixed with 2.5% glutaraldehyde in phosphate buffer for 2 h at 4 °C, washed with the same buffer, and post fixed with 1% osmium tetroxide in buffer containing 0.8% potassium ferricyanide at 4 °C. Then, the samples were dehydrated for 1 h in acetone, infiltrated in a graded series of Epon resin (Ted pella, Inc., Redding, CA, USA) during 2 days, and finally embedded in fresh Epon resin and polymerized at 60 °C during 48 h. Ultrathin sections were obtained using a Leica Ultracut UCT ultramicrotome (Leica, Vienna, Austria) and mounted on Formvar-coated copper grids. Sections were stained with 2% aqueous uranyl acetate and lead citrate and examined in a JEM-1010 electron microscope (Jeol, Tokyo, Japan).
# [8] = test system: Pseudomonas aeruginosa ATTC 27853; conditions: cited from earlier work
# Description: C6 analogues are devoid of antibacterial effect both against Gram-positive and Gram-negative bacteria, with MICs higher than 32 μg·mL^−1. C8 analogues show some activity, especially against P. aeruginosa but not on Gram-positive S. aureus. […] For example, MIC of 4 μg·mL^−1 and 2 μg·mL^−1 against P. aeruginosa for spB-3 and spE-3 respectively are obtained, where ... || Figure 3 Comparative TEM micrographs of P. aeruginosa (left) and E. coli (right). Untreated bacteria (a,b); bacteria treated with polymyxin analogues at 1xMIC: P. aeruginosa with spB-3 (4 μg·mL^−1) (c), or with of spE-10 (1 μg·mL^−1) (e); E. coli treated with spB-3 (2 μg·mL^−1) (d) or spE-10 (8 μg·mL^−1) (f). Lipopeptides cause the alteration of the membranes, with blebs protruding, loss of membrane, clear cytoplasmic zones, and even ghost cells. Similar results are obtained with natural PxB ((g,h), this last one is adapted from (Rabanal et al. Sci. Rep. 2015).
# [9] = test system: Escherichia coli ATTC 25922; conditions: cited from earlier work
# Description: Table 1 Sequences and antimicrobial activities of the synthesized peptides determined as minimal inhibitory concentration (MIC) calculated for different bacteria strains. | column: MIC/µg mL^−1 (µM) / EC ^1 || Figure 3 Comparative TEM micrographs of P. aeruginosa (left) and E. coli (right). Untreated bacteria (a,b); bacteria treated with polymyxin analogues at 1xMIC: P. aeruginosa with spB-3 (4 μg·mL^−1) (c), or with of spE-10 (1 μg·mL^−1) (e); E. coli treated with spB-3 (2 μg·mL^−1) (d) or spE-10 (8 μg·mL^−1) (f). Lipopeptides cause the alteration of the membranes, with blebs protruding, loss of membrane, clear cytoplasmic zones, and even ghost cells. Similar results are obtained with natural PxB ((g,h), this last one is adapted from (Rabanal et al. Sci. Rep. 2015).
# P. aeruginosa = assay: Transmission electron microscopy of treated bacteria; assay type: cell-based, Pseudomonas aeruginosa; conditions: 1xMIC, 2 h, room temperature, tryptone water
# Description: as §3
# [10] = test system: Staphylococcus aureus ATTC 25923; conditions: cited from earlier work
# Description: C6 analogues are devoid of antibacterial effect both against Gram-positive and Gram-negative bacteria, with MICs higher than 32 μg·mL^−1. C8 analogues show some activity, especially against P. aeruginosa but not on Gram-positive S. aureus. […] For example, MIC of 4 μg·mL^−1 and 2 μg·mL^−1 against P. aeruginosa for spB-3 and spE-3 respectively are obtained, where ... || Since some of the polymyxin analogues also have good activities against S. aureus, the effects on the cell morphology of this Gram-positive bacteria were determined.
# S. aureus = assay: Transmission electron microscopy of treated bacteria; assay type: cell-based, Staphylococcus aureus; conditions: 1xMIC, 120 min, tryptone water
# Description: as §3
# [11] = 5 × 10^5 CFU/mL, higher of the three
# [12] = taken from the literature (analogues #37, #38, #39)
# [13] = value in brackets, taken from the literature
Molecule,"Increase in surface pressure (Δπ), POPE/POPG [5]","Increase in surface pressure (Δπ), POPC [5]","Increase in surface pressure (Δπ), POPG [5]","Increase in surface pressure (Δπ), LPS [7]","MIC PA [8, 12]","MIC PA [8, 13]","MIC EC [9, 12]","MIC EC [9, 13]","MIC SA [10, 12]","MIC SA [10, 13]",ultrastructural effect on S. aureus (TEM) (S. aureus),also measured
"CC[C@H](C)CCCCC(=O)N[C@@H](CCN)C(=O)N[C@H](C(=O)N[C@@H](CCN)C(=O)N[C@H]1CCNC(=O)[C@H]([C@@H](C)O)NC(=O)[C@H](CCN)NC(=O)[C@H](CCN)NC(=O)[C@H](CC(C)C)NC(=O)[C@@H](CC(C)C)NC(=O)[C@H](CCN)NC1=O)[C@@H](C)O [PxE, Polymyxin E, reference compound] (X1-[Dab]T[Dab][Dab][Dab][dL]L[Dab][Dab]T; lactam 4-C)",7.9 mN·m^−1,0.8 mN·m^−1,5.3 mN·m^−1,11.1 mN·m^−1,,,,,,,,"hemolysis [1]: 13%; MIC EC [2, 11]: 1 µg/mL; MIC EC ([2]; value in brackets): 0.86 µM; MIC SA [3, 11]: > 32 µg/mL; MIC SA ([3]; value in brackets): > 27 µM; MIC PA [4, 11]: 0.5 µg/mL; MIC PA ([4]; value in brackets): 0.43 µM; lipid mixing (increase in FRET) [6]: no representative changes"
"Decanoyl-[Dab]T[Dab]C[Dab]FL[Dab][Dab]C (disulfide 4-10 (inferred)) [spB-3, the C10 analogue of PxB]",6.0 mN·m^−1,2.0 mN·m^−1,6.2 mN·m^−1,11.0 mN·m^−1,4 µg/mL,3.2 µM,2 µg/mL,1.6 µM,8 µg/mL,6.5 µM,formation of spherical mesosome-like intracellular structures and membranous inclusion bodies together with deformation of the cell envelope,ultrastructural effect on E. coli (TEM) (E. coli): extensive bleb formation; ultrastructural effect on P. aeruginosa (TEM) (P. aeruginosa): formation of blebs that protrude from the outer membrane
"Lauroyl-[Dab]T[Dab]C[Dab]F[Nle][Dab][Dab]C (disulfide 4-10 (inferred)) [spB-8, the C12/Nle7 derivative]",6.2 mN·m^−1,1.7 mN·m^−1,3.8 mN·m^−1,11.2 mN·m^−1,1 µg/mL,0.79 µM,4 µg/mL,3.2 µM,2 µg/mL,1.58 µM,Even more disruptive effects,
